This is an account of results in patent US20220409578A1, “FUNCTIONALIZED 1,3-BENZENE DIOLS AND THEIR METHOD OF USE FOR THE TREATMENT OF RADIATION DERMATITIS AND OTHER SKIN DISORDERS” (KANNALIFE SCIENCES, INC., priority 2019, published 2022).

The subject of data set [1] is human 3D cornea-like EPIOCULAR
Description: Eye irritation, EPIOCULAR reconstructed cornea-like model, OECD 492 (MTT). Format: cell-based. Particulars: human, 30 min. As for the experimental part: Ocular irritancy: The purpose of this study was to evaluate any potential ocular irritation activity of KLS-13022 formulations compared to vehicle-only treated tissues in vitro on human 3D cornea-like EPIOCULAR by topical application according to OECD 492 protocol. Test formulations of KLS-13022 up to 3% w/v in 60:40 ethanol:water vehicle were prepared fresh before use. EPIOCULAR tissues were acclimated before treatments for 24 hours and later treated topically for 30 minutes with KLS-13022 (0.01, 0.1, 0.3 1, 3% w/v). Methyl acetate was used as positive eye irritant control. Tissue viability levels were measured by MTT reduction assay method after material treatments. The levels of tissue viability after each material treatment was compared to vehicle control group to determine any potential ocular irritation activity.
Average levels of tissue viability were calculated for each treatment group. According to OECD 492 protocol, predicted positive eye irritation activities were determined when obtaining <60% tissue viability. […] Primary cornea-like inserts were used from human origin and purchased from MatTek (Ashland, Mass.). […] Tissues were cultured with standard conditions (37° C., 95% v/v air, 5% v/v CO2) and acclimated for 18+3 hours before dosing procedures.

Data set [2] is classed as in vitro ADME, porcine. As for the experimental part:
Percutaneous absorption (Franz cell). For these studies, porcine ear skin (n=3; 1.5 in^2) obtained from Animal Technologies, Inc. (Tyler, T X) were utilized, Skins were thawed for 30 min at room temperature. After thawing, skin was placed over receptor compartment of the unjacketed Franz cell chamber with stir bar obtained from Permegear and covered with the donor compartment. The clamp was then placed to hold the cell together. The receptor compartment was filled with 12 mL of 1M PBS buffer+4% BSA and 0.1% sodium azide through the sampling port using a syringe. Franz cell was placed on a stir plate at ˜600 RPM and heated till the buffer reached 37° C. 400 μL of 3H—H2O (˜1.5 million counts) was then placed on the membrane for 5 min. […] After 30 min, 250 μL of the receptor buffer was removed in triplicate and counted to check the integrity of the skin (>0.4 μl/cm^2 was considered acceptable). […] Extraction and homogenization were performed to quantify the amount of formulation remaining in the epidermis and dermis. […] The concentration of KLS-13022 was measured by liquid chromatography coupled with tandem mass spectrometry (LC/MS/MS). […] The analytes and internal standard were detected using an Applied Biosystem API-3000 mass spectrometer equipped with a Turbo-Ion Spray (Electrospray, ESI) source that was operated in multiple reaction monitoring mode (MRM) under positive ion mode.

The subject of data set [3] is human epidermal keratinocytes. Format: cell-based. The note with it: 24 h. As for the experimental part:
Normal human epidermal keratinocytes cultures were utilized to measure the release of proinflammatory cytokines and chemokines. Primary epidermal keratinocytes from neonatal donors were used from human origin and purchased from Thermo-Fisher (Cat No. A13401). […] Cells were cultured until the second passage and then acclimated for 48 hours more before UV-B irradiation. Dosing procedures and cell groups were identified using appropriate cell culture 24-well plates. The cell culture incubator was set at 5% v/v CO2 with temperature and humidity maintained at 36-38° C. and 40-70%, respectively. The test and control substances were administered to HKGS-depleted medium in triplicates. A fixed 5 μL/well from 100× stock dose volume was administered to 500 μL of media to each cell culture well on Day 3 and pre-incubated for 6 hours and then post-UVB incubated for 18 hours. The same procedure was utilized to determine non-toxic concentrations of 1,3-benzene diols after 24 hours of treatment. Cell Viability assays were conducted using MTS reduction assays (Promega) diluted 1:5 in DMEM+10% FBS media as specified by the manufacturer. Absorbance was measured at 490 nm using plate reader and cell viability was calculated as a percent of control. This assay was done along with all culture systems that were utilized to study cytokine release. […]

Data set [4] relates to human dermal microvascular endothelial cells. It counts as cell-based. Particulars: 6 h. As for the experimental part:
Dermal Microvascular endothelial cells of human origin were cultured in vitro using standard conditions (37° C., 95% v/v air, 5% v/v CO2). Human cells were selected as relevant to cell types within skin tissues for this development program. Cell culture methods are commonly used in non-clinical studies conducted on pharmaceutical products. […] Cells were cultured until the third and fourth passage and then acclimated for 24 hours before Nickel induction and dosing procedures. Cell treatment groups were identified using appropriate 96-well plates. The test and control articles were administered to medium containing 1 mM NiSO4 in triplicates. The negative control group received vehicle-only (0.1% v/v final) dose. A fixed 0.1 μL/well from 1000× stock dose volume was administered to 100 μL of media to each cell culture well on Day 2 and incubated for 6 hours at 37 degrees. These cell cultures were also utilized to determine the concentrations of test agent that were non-toxic after 24 hours of incubation. Cell Viability assays were conducted using MTS reduction assays (Promega) diluted 1:5 in DMEM+10% FBS media as specified by the manufacturer. Absorbance was measured at 490 nm using plate reader and cell viability was calculated as a percent of control. This assay was done along with all culture systems that were utilized to study cytokine release. […]

Data set [5] deals with human 3D skin-like EPIDERM. Particulars: 1 h.

Each structure is given as a SMILES string.

Consider `C=C(C)[C@@H]1CCC(C)=C[C@H]1c1c(O)cc(CC2CN(C(=O)OCC)C2)cc1O` [KLS-13022, ethyl 3-(3,5-dihydroxy-4-((1R,6R)-3-methyl-6-(prop-1-en-2-yl)cyclohex-2-enyl)benzyl)azetidine-1-carboxylate], for which the tissue viability in data set [1] is reported as at least 60%; in data set [5] it was at least 50%. The “penetration into receptor solution” value in data set [2] is on record as “not into the receptor solution”. Also, in data set [2] (pig, 24 h, 1 % w/v), the “amount in epidermis/dermis (viable skin)” value is 0.324%. Further, the non-toxic concentration range in data set [3] is at most 10 µM; in data set [4] it was at most 12 µM.
